The text below walks through data of article PMC9861744, “Polysulfone Membranes Doped with Human Neutrophil Elastase Inhibitors: Assessment of Bioactivity and Biocompatibility” (Membranes, 2023).

In this assay the target is T1, Human neutrophil elastase (HNE) (Homo sapiens, UniProt P08246).
T1 construct: gene ELANE
T1 sequence (P08246 30-247): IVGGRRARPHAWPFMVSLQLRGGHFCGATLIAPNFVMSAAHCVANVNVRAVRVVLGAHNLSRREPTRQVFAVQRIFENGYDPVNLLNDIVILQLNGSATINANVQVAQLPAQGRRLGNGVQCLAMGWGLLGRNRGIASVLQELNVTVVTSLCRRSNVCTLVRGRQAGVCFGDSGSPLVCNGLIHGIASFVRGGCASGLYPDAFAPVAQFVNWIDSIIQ
The assay can be described thus: fluorometric HNE activity assay with MeO-Suc-Ala-Ala-Pro-Val-AMC, […] min preincubation, […] °C. It is filed as biochemical.

Each structure is given as a SMILES string.

Compound `CCC1(CC)C(=O)N(c2ccc(C(=O)O)cc2)C1=O` [D4L-2] had a 50% inhibitory concentration (IC50) of 18 nM.

The term IC50 denotes the concentration that inhibits the measured activity by half. Lower therefore signals greater potency.
